Some test systems named below: TK-10 renal; NCI-H460 lung; SF-295 CNS; MDA-N; SF-268 CNS; K-562 leukemia; MALME-3M melanoma; CAKI-1 renal; COLO 205 colon; NCI/ADR-RES ovarian; HOP-62 NSCLC; SF-539 CNS; MCF7 breast; NCI-H23 lung; HOP-92 NSCLC; MOLT-4 leukemia; T-47D breast; IGROV1 ovarian; SNB-19 CNS; LXFL 529 NSCLC.
What all share (experiment): DTP human tumour cell line panel, 48 h

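Method: 48-hour compound exposure of cells in 96-well plates, five concentrations, linear interpolation of endpoints. TGI: concentration producing complete growth inhibition.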 A value given as a limit tells only on which side of the number the result lay.

As a reminder, the TGI is the concentration giving total growth inhibition. `COC(=O)c1ccccc1C1CN=NC12Cc1cc(C)c(C)cc1C2=O` (configuration not stated): the concentration for total growth inhibition (TGI) in the test on TK-10 renal, with NCI-H460 lung, in the test with SF-295 CNS, in the test with MDA-N, in the test with SF-268 CNS and in the test on K-562 leukemia was more than 100 µM throughout. Besides, the TGI in the test with MALME-3M melanoma, in the test with CAKI-1 renal, with COLO 205 colon, with NCI/ADR-RES ovarian, with HOP-62 NSCLC and in the test with SF-539 CNS was more than 100 µM throughout. Also, the TGI with MCF7 breast is 65 µM; in the test with NCI-H23 lung, more than 100 µM; in the test with HOP-92 NSCLC it was 78.9 µM; with MOLT-4 leukemia it was 89.8 µM; in the test on T-47D breast, more than 100 µM; with IGROV1 ovarian it was more than 100 µM. This compound also came in with a TGI in the test with SNB-19 CNS of more than 100 µM.
Take `Cc1nc(Nc2ccccc2)sc1C(=O)NNc1ccc([N+](=O)[O-])cc1[N+](=O)[O-]`: the TGI in the test with TK-10 renal is more than 100 µM; in the test on NCI-H460 lung, more than 100 µM; in the test on SF-295 CNS, more than 100 µM; in the test on SF-268 CNS, more than 100 µM; in the test with K-562 leukemia, 60.1 µM; in the test with MALME-3M melanoma, more than 100 µM. Also, the TGI in the test with CAKI-1 renal was more than 100 µM; with COLO 205 colon it was more than 100 µM; with HOP-62 NSCLC it was more than 100 µM; in the test with SF-539 CNS it was more than 100 µM; in the test with NCI-H23 lung, 44.2 µM; with MOLT-4 leukemia, 69.7 µM. The TGI in the test on LXFL 529 NSCLC, in the test with IGROV1 ovarian and in the test with SNB-19 CNS was more than 100 µM each time.
`O=S(=O)(NC1OCCCC1I)c1ccccc1` (configuration not stated): the TGI in the test with TK-10 renal, with NCI-H460 lung, with SF-295 CNS, in the test on MDA-N, with SF-268 CNS and in the test with K-562 leukemia was more than 100 µM throughout. Also, the TGI with MALME-3M melanoma, in the test with CAKI-1 renal, in the test on COLO 205 colon, in the test with NCI/ADR-RES ovarian, with HOP-62 NSCLC and in the test on SF-539 CNS was more than 100 µM throughout. Moreover, the total growth inhibition concentration (TGI) in the test with MCF7 breast, in the test on NCI-H23 lung, with HOP-92 NSCLC, in the test with MOLT-4 leukemia, with T-47D breast and in the test with IGROV1 ovarian was more than 100 µM each time. The compound further showed a total growth inhibition concentration (TGI) in the test with SNB-19 CNS of more than 100 µM.
With `O=C(O)Cn1c(=O)[nH]c(=O)c2[nH]cnc21`, the TGI with TK-10 renal, in the test on NCI-H460 lung, in the test on SF-268 CNS, in the test with K-562 leukemia, in the test with MALME-3M melanoma and in the test with COLO 205 colon was more than 100 µM in each case. In addition, the TGI in the test with HOP-62 NSCLC, with SF-539 CNS, in the test on NCI-H23 lung, in the test with MOLT-4 leukemia, in the test with LXFL 529 NSCLC and in the test on IGROV1 ovarian was more than 100 µM each time. The compound also came in with a TGI in the test on SNB-19 CNS of more than 100 µM.
For the compound `CC1(C)N=C(C(=O)c2ccccc2)N(O)C1(O)c1ccccc1` (configuration not stated), the total growth inhibition concentration (TGI) in the test on TK-10 renal, with NCI-H460 lung, in the test on SF-295 CNS, in the test with MDA-N, in the test with SF-268 CNS and with K-562 leukemia was more than 100 µM in each case. Further, the concentration for total growth inhibition (TGI) with MALME-3M melanoma, with CAKI-1 renal, in the test on COLO 205 colon, in the test with NCI/ADR-RES ovarian, in the test with HOP-62 NSCLC and in the test with SF-539 CNS was more than 100 µM each time. For the same compound, the concentration for total growth inhibition (TGI) in the test with MCF7 breast, with NCI-H23 lung, with HOP-92 NSCLC, in the test with MOLT-4 leukemia, in the test on T-47D breast and in the test with IGROV1 ovarian was more than 100 µM throughout. Further, the concentration for total growth inhibition (TGI) in the test on SNB-19 CNS was more than 100 µM.
As for `Clc1ccc(C=NC23CC4CC(CC(C4)C2)C3)cc1Cl`, the total growth inhibition concentration (TGI) in the test on TK-10 renal, in the test on NCI-H460 lung, with SF-295 CNS, with MDA-N, in the test with SF-268 CNS and in the test with K-562 leukemia was more than 10 µM in each case. For the same compound, the TGI in the test with MALME-3M melanoma, in the test on CAKI-1 renal, in the test with COLO 205 colon, in the test with NCI/ADR-RES ovarian, in the test with HOP-62 NSCLC and in the test with SF-539 CNS was more than 10 µM in each case. Moreover, the TGI with MCF7 breast, in the test with NCI-H23 lung, in the test with HOP-92 NSCLC, with MOLT-4 leukemia, in the test with T-47D breast and in the test with IGROV1 ovarian was more than 10 µM throughout. This compound also yielded a concentration for total growth inhibition (TGI) with SNB-19 CNS of more than 10 µM.
In the case of `Cn1c2ccccc2n2c3ccccc3c(=O)c(C#N)c12`, the TGI is more than 100 µM in the test on TK-10 renal; more than 61.1 µM in the test with NCI-H460 lung; 55.1 µM with SF-295 CNS; more than 100 µM in the test on MDA-N; more than 100 µM with SF-268 CNS; more than 100 µM with K-562 leukemia. For the same compound, the total growth inhibition concentration (TGI) in the test on MALME-3M melanoma is 49.9 µM; in the test with CAKI-1 renal, 35.2 µM; in the test on COLO 205 colon, more than 100 µM; in the test with NCI/ADR-RES ovarian it was more than 60.1 µM; in the test on HOP-62 NSCLC, more than 100 µM; with SF-539 CNS, more than 80.8 µM. Besides, the total growth inhibition concentration (TGI) in the test with MCF7 breast was more than 100 µM; with NCI-H23 lung, more than 59.8 µM; with HOP-92 NSCLC it was more than 76.7 µM; with MOLT-4 leukemia, 17.8 µM; in the test on T-47D breast, more than 95.6 µM; with IGROV1 ovarian, more than 87 µM. In the test on SNB-19 CNS, this compound yielded a total growth inhibition concentration (TGI) of more than 100 µM.
In the case of `CC1(C)CC(=O)c2c(nc(SSc3nc4c(c(-c5ccc(Br)cc5)c3C#N)C(=O)CC(C)(C)C4)c(C#N)c2-c2ccc(Br)cc2)C1`, the TGI in the test on TK-10 renal, in the test on NCI-H460 lung, in the test with SF-295 CNS, with MDA-N, in the test with SF-268 CNS and with K-562 leukemia was more than 10 µM each time. Further, the TGI with MALME-3M melanoma, with CAKI-1 renal, in the test with COLO 205 colon, in the test with NCI/ADR-RES ovarian, with HOP-62 NSCLC and in the test with SF-539 CNS was more than 10 µM in each case. The concentration for total growth inhibition (TGI) in the test on MCF7 breast, with NCI-H23 lung, with HOP-92 NSCLC, in the test on MOLT-4 leukemia, in the test with T-47D breast and with IGROV1 ovarian was more than 10 µM throughout. Also, the TGI in the test on SNB-19 CNS is more than 10 µM.

The values above are taken from PubChem BioAssay (NCI).
